Reference: patent US7608604B2, “Antiparasitic agents” (Pfizer Limited, priority 2007, dated 2009)

What follows are compounds tested on Haemonchus contortus L3 (assay: Haemonchus contortus L3 (HcL3) in vitro test). Conditions: minimum effective dose; table of Examples 13a-42; 13a/b, 27a/b, 29a/b, 33a/b tested as mixtures of regioisomers.
Type: cell-based
Protocol: The Haemonchus contortus L3 (HcL3) test is used to measure the biological activities of the compounds claimed. The assay involves in vitro testing against H. contortus conducted according to the following general procedure.
HcL3 larvae were collected from infected sheep and, after cleaning, stored in water at 12° C. for up to one month. Viable infective larvae were exsheathed using 10% hypochlorite in Glucose Tyrodes balanced salt solution containing antibiotics and resuspended in basal medium (20 g/l bacto-tryptone, 5 g/l yeast extract, 57 g/l glucose, 0.8 g/l di-Potassium hydrogen orthophosphate, 0.8 g/l potassium dihydrogen orthophosphate and […] Hepes with antibiotics). 95 μl worm suspension was added to each well of a 96 well plate.
Test compounds were dissolved in dimethylsulfoxide to give a working stock solution of 20 mg/ml. The stock concentration was diluted 1:10 in Basal media to give 2.0 mg/ml (10% DMSO). 5 μl of the stock compound solution was added to the worm suspension to give a final concentration of 100 μg/ml. Plates were sealed with pressure sensitive film and incubated at 37° C. Observations were made 2 hrs, 24 hrs, 48 hrs, 72 hrs and 4 days post-treatment using an inverted microscope. Activity was recorded if a significant proportion of the worms were dead or adversely affected by the compound when compared to the control well containing 1% DMSO. Compounds were initially tested at 100 μg/ml, wherefrom relevant dose responses (100, 30, 10, 3, 1, 0.3, 0.1 μg/ml) were conducted in duplicate experiments to generate n=2. Data was recorded as minimum effective dose.

In order of rising “H.c. (L3) MED” value:
1. CC(C#N)(COc1cc(Cl)ccc1C#N)NC(=O)c1ccc(S(F)(F)(F)(F)F)cc1 (stereo not shown) [Example 24, N-[2-(5-Chloro-2-cyanophenoxy)-1-cyano-1-methylethyl]4-(pentafluorothio)benzamide]  3 µg/mL
2. CC(C#N)(COc1ccc(F)cc1C#N)NC(=O)c1ccc(S(F)(F)(F)(F)F)cc1 (stereo not shown) [Example 27a, N-[1-Cyano-2-(2-cyano-4-fluorophenoxy)-1-methylethyl]-4-(pentafluorothio)benzamide]  3 µg/mL
3. CC(C#N)(COc1ccc(F)c(C#N)c1)NC(=O)c1ccc(S(F)(F)(F)(F)F)cc1 (stereo not shown) [Example 27b, N-[1-Cyano-2-(3-cyano-4-fluorophenoxy)-1-methylethyl]-4-(pentafluorothio)benzamide]  3 µg/mL
4. CC(C#N)(COc1ccc(Cl)cc1F)NC(=O)c1ccc(S(F)(F)(F)(F)F)cc1 (stereo not shown) [Example 28, N-[2-(4-Chloro-2-fluorophenoxy)-1-cyano-1-methylethyl]-4-(pentafluorothio)benzamide]  3 µg/mL
5. CC(C#N)(COc1cc(C#N)ccc1Br)NC(=O)c1ccc(S(F)(F)(F)(F)F)cc1 (stereo not shown) [Example 32, N-[2-(2-Bromo-5-cyanophenoxy)-1-cyano-1-methylethyl]-4-(pentafluorothio)benzamide]  3 µg/mL
6. CC(C#N)(COc1cc(Br)cc(C#N)c1)NC(=O)c1ccc(S(F)(F)(F)(F)F)cc1 (stereo not shown) [Example 35, N-[2-(3-Bromo-5-cyanophenoxy)-1-cyano-1-methylethyl]-4-(pentafluorothio)benzamide]  3 µg/mL
7. CC(C#N)(COc1cccc(C#N)c1Br)NC(=O)c1ccc(S(F)(F)(F)(F)F)cc1 (stereo not shown) [Example 37, N-[2-(2-Bromo-3-cyanophenoxy)-1-cyano-1-methylethyl]-4-(pentafluorothio)benzamide]  3 µg/mL
8. CC(C#N)(COc1ccc(C#N)cc1)NC(=O)c1ccc(S(F)(F)(F)(F)F)cc1 (stereo not shown) [Example 22, N-[1-Cyano-2-(4-cyanophenoxy)-1-methylethyl]-4-(pentafluorothio)benzamide]  10 µg/mL
9. CC(C#N)(COc1ccccc1Cl)NC(=O)c1ccc(S(F)(F)(F)(F)F)cc1 (stereo not shown) [Example 25, N-[2-(2-Chlorophenoxy)-1-cyano-1-methylethyl]-4-(pentafluorothio)benzamide]  10 µg/mL
10. CC(C#N)(COc1cccc(Cl)c1C#N)NC(=O)c1ccc(S(F)(F)(F)(F)F)cc1 (stereo not shown) [Example 26, N-[2-(3-Chloro-2-cyanophenoxy)-1-cyano-1-methylethyl]-4-(pentafluorothio)benzamide]  10 µg/mL
11. CC(C#N)(COc1ccc(C#N)cc1F)NC(=O)c1ccc(S(F)(F)(F)(F)F)cc1 (stereo not shown) [Example 29a, N-[1-Cyano-2-(4-cyano-2-fluorophenoxy)-1-methylethyl]-4-(pentafluorothio)benzamide]  10 µg/mL
12. CC(C#N)(COc1cc(C#N)ccc1F)NC(=O)c1ccc(S(F)(F)(F)(F)F)cc1 (stereo not shown) [Example 29b, N-[1-Cyano-2-(5-cyano-2-fluorophenoxy)-1-methylethyl]-4-(pentafluorothio)benzamide]  10 µg/mL
13. CC(C#N)(COc1ccc(C(F)(F)F)cc1F)NC(=O)c1ccc(S(F)(F)(F)(F)F)cc1 (stereo not shown) [Example 30, N-{1-Cyano-2-[2-fluoro-4-(trifluoromethyl)phenoxy]-1-methylethyl}-4-(pentafluorothio)benzamide]  10 µg/mL
14. CC(C#N)(COc1cccc(Cl)c1)NC(=O)c1ccc(S(F)(F)(F)(F)F)cc1 (stereo not shown) [Example 31]  10 µg/mL
15. CC(C#N)(COc1ccc(F)cc1Br)NC(=O)c1ccc(S(F)(F)(F)(F)F)cc1 (stereo not shown) [Example 33a, N-[2-(2-Bromo-4-fluorophenoxy)-1-cyano-1-methylethyl]-4-(pentafluorothio)benzamide]  10 µg/mL
16. CC(C#N)(COc1ccc(F)c(Br)c1)NC(=O)c1ccc(S(F)(F)(F)(F)F)cc1 (stereo not shown) [Example 33b, N-[2-(3-Bromo-4-fluorophenoxy)-1-cyano-1-methylethyl]-4-(pentafluorothio)benzamide]  10 µg/mL
17. CC(C#N)(COc1ccc(Br)cc1F)NC(=O)c1ccc(S(F)(F)(F)(F)F)cc1 (stereo not shown) [Example 34, N-[2-(4-Bromo-2-fluorophenoxy)-1-cyano-1-methylethyl]-4-(pentafluorothio)benzamide]  10 µg/mL
18. CC(C#N)(COc1cccc(C#N)c1C(F)(F)F)NC(=O)c1ccc(S(F)(F)(F)(F)F)cc1 (stereo not shown) [Example 36, N-{1-Cyano-2-[3-cyano-2-(trifluoromethyl)phenoxy]-1-methylethyl}-4-(pentafluorothio)benzamide]  10 µg/mL
19. CC(C#N)(COc1cc(Cl)ccc1Cl)NC(=O)c1ccc(S(F)(F)(F)(F)F)cc1 (stereo not shown) [Example 38, N-[1-Cyano-2-(2,5-dichlorophenoxy)-1-methylethyl]-4-(pentafluorothio)benzamide]  10 µg/mL
20. CC(C#N)(COc1cccc(Br)c1C#N)NC(=O)c1ccc(S(F)(F)(F)(F)F)cc1 (stereo not shown) [Example 40, N-[2-(3-Bromo-2-cyanophenoxy)-1-cyano-1-methylethyl]-4-(pentafluorothio)benzamide]  10 µg/mL
21. CC(C#N)(COc1ccc(Br)cc1C#N)NC(=O)c1ccc(S(F)(F)(F)(F)F)cc1 (stereo not shown) [Example 41, N-[2-(4-Bromo-2-cyanophenoxy)-1-cyano-1-methylethyl]-4-(pentafluorothio)benzamide]  10 µg/mL
22. CC(C#N)(COc1ccccc1C(F)(F)F)NC(=O)c1ccc(S(F)(F)(F)(F)F)cc1 (stereo not shown) [Example 21, N-{1-Cyano-1-methyl-2-[2-(trifluoromethyl)phenoxy]ethyl}-4-(pentafluorothio)benzamide]  30 µg/mL
23. CC(C#N)(COc1cc(F)cc(Cl)c1)NC(=O)c1ccc(S(F)(F)(F)(F)F)cc1 (stereo not shown) [Example 23, N-[2-(3-Chloro-5-fluorophenoxy)-1-cyano-1-methylethyl]-4-(pentafluorothio)benzamide]  30 µg/mL
24. CC(C#N)(COc1cccc(F)c1Cl)NC(=O)c1ccc(S(F)(F)(F)(F)F)cc1 (stereo not shown) [Example 39, N-[2-(2-Chloro-3-fluorophenoxy)-1-cyano-1-methylethyl]-4-(pentafluorothio)benzamide]  30 µg/mL
25. CC(C#N)(COc1cccc(Cl)c1Cl)NC(=O)c1ccc(S(F)(F)(F)(F)F)cc1 (stereo not shown) [Example 42, N-[1-Cyano-2-(2,3-dichlorophenoxy)-1-methylethyl]-4-(pentafluorothio)benzamide]  30 µg/mL

Same assay, conditions: minimum effective dose; table of Examples 45-49

In order of rising “H.c. (L3) MED” value:
1. CC(C#N)(COc1cc(C#N)ccc1C#N)NC(=O)c1ccc(S(F)(F)(F)(F)F)cc1 (stereo not shown) [Example 46, N-[1-Cyano-2-(2,5-dicyanophenoxy)-1-methylethyl]-4-(pentafluorothio)benzamide]  10 µg/mL
2. CC(C#N)(COc1ccc(C#N)cc1C#N)NC(=O)c1ccc(S(F)(F)(F)(F)F)cc1 (stereo not shown) [Example 47, N-[1-Cyano-2-(2,4-dicyanophenoxy)-1-methylethyl]-4-(pentafluorothio)benzamide]  10 µg/mL
3. CC(C#N)(COc1cc(C#N)ccc1C(N)=O)NC(=O)c1ccc(S(F)(F)(F)(F)F)cc1 (stereo not shown) [Example 45, 4-Cyano-2-(2-cyano-2-{[4-(pentafluorothio)benzoyl]amino}propoxy)benzamide]  30 µg/mL
